SMILES strings stand for the structures. “Also recorded” adds a separate entry of the source.

The test system of data set [1] is primary human TALL samples. In words: Primary human TALL samples treated with I3. In kind it is cell-based. From the text: To further investigate the Notch inhibitory effect of 6-(4-Tert-Butylphenoxy)Pyridin-3-Amine (I3) in a relevant pathological condition, primary human TALL samples were profiled for the activation of Notch signalling. An accumulation of active form of Notch (NICD) was used as a biomarker for pathway activation.

Data set [2] can be described thus: Body weight changes in mice. In kind it is in vivo, mouse. To be noted: 25 mg/kg, 5 consecutive days. How it is done: C57B16 mice were intra peritoneal (i.p) injected with oil or 25 mg/kg of I3 or 10 mg/kg of CPA, once a day for 5-7 days. Mice were weighed using a weighing scale on day 0, day 3 and day 5. On day 8, intestinal tissue, spleen and thymus were harvested for analyses.
In in vitro culture assays, chemical compound 6-(4-Tert-Butylphenoxy)Pyridin-3-Amine (I3) was able to block Notch1 and Notch2 mediated pathway activation. Therefore, Applicants hypothesized that treatment of mice with 6-(4-Tert-Butylphenoxy)Pyridin-3-Amine (I3) may lead to a goblet cell metaplasia of the intestine. To test this hypothesis, mice were intra peritoneally (i.p) injected with 25 mg/kg of 6-(4-Tert-Butylphenoxy)Pyridin-3-Amine (I3) for 7 consecutive days. On day 8, animals were sacrificed and intestinal tissues were fixed and embedded in paraffin. Histological analyses were carried out using Alcian blue to stain for goblet cells. […] Similarly, the effect of 6-(4-Tert-Butylphenoxy)Pyridin-3-Amine (I3) on body weight changes was also monitored. Mice were injected for 5 consecutive days with 25 mg/kg of 6-(4-Tert-Butylphenoxy)Pyridin-3-Amine (I3) and the changes in body mass were recorded.

Data set [3] relates to Notch signalling via DL4:N1 ligand-receptor pair (Notch1). In words: DL4:N1 coculture assay, Notch driven luciferase reporter. In kind it is cell-based, mouse. The conditions noted are these: for DL4:N1 (Notch1) driven pathway activation: 10 μM, 24 hours. From the text: Mouse DL4-IRES dsRED cDNA was cloned into a pENTR1 vector (Invitrogen®) and finally shuttled into a destination lentivirus vector using Gateway cloning strategy (Invitrogen). A Phosphoglycerate kinase (PGK) promoter drove the expression of DL4 protein. DL4-lentiviral particles were produced in 293T cells by cotransfection of DL4-lentivirus vector, Gag/pol expression plasmid and plasmid encoding for viral envelope proteins. To overexpress Notch1 protein, mouse full length Notch1 cDNA was a cloned in a pCDNA3.1-IRES-puromycin vector. Notch1 cDNA was cloned upstream of IRES-puromycin between HindIII and XbaI restriction sites. A CMV promoter controlled the expression of Notch1 protein.
To measure the Notch signalling activation, CSL/RBP-jk consensus DNA binding sequences were cloned in a head to tail conformation in the pGL4 luciferase vector (Promega), thus named 12×CSL/RBP-jjk luciferase vector. In order to determine the Notch pathway activation in chemical compound screening assay, 12×CSL/RBP-jk consensus DNA binding sequences were cloned into pGL4.26.luciferase vector (Promega). As an internal control for transfection efficiency, SV40 Renilla vector was used (Promega).
In order to generate DL4 and N1 stable cell lines, HeLa cell were bought from ATCC (catalog # CCL-2). To generate DL4 stable lines, cells were transduced with DL4-lentiviral particles. DL4 stable clones were selected using puromycin. High DL4 expressing clones were sorted using antibodies against DL4 with Fluorescence activated cell sorting (FACS). To generate N1 stable line, cell were transfected with a pCDNA3.1+(Invitrogen) plasmid containing mouse full length Notch1 under the control of CMV promoter. To select for Notch1 expressing clones, an IRES puromycin cassette was cloned downstream of Notch1 cDNA. HeLa cells expressing high levels of Notch1 were enriched by FACS using anti-Notch1 antibodies. DL4- and N1-HeLa cells were cultured in DMEM (GIBCO, Invitrogen), 10% FCS and 10 ug/ml of puromycin (Sigma).
For chemical library screen, the coculture assay was performed as follows. N1-HeLa cells were cotransfected in 10 cm tissue culture dishes with 16 μg of pGL4.26. 12×CSL.luciferase vector/plate, 4 μg of Notch1 expression plasmid/plate, and 200 ng of SV40 Renilla vector/plate. DL4- and N1-HeLa cells were detached from the plate by using 0.5 mM EDTA (1×PBS). The both cell populations were counted and mixed in 1:1 ratio (5,000:5,000 cells/well in a 384 well plate) and dispensed into 384 well plates (white, clear bottom, Corning) using multidrop Combi plate dispenser. The assay plates were pre-dispensed (using automated Biomek 3000 liquid handler) with chemical compound libraries (Microsource NIMDS, Maybridge Hitfinder and Prestwick) to give a final concentration of 10 μM. The final assay volume was 22 μls. Twenty-four hours later, growth media was aspirated and cells were lysed with 1× Passive lysis buffer for 10 minutes at room temperature. Luciferase activity was measured using Luciferase Assay Reagent II and Renilla values were determined by using Stop and Glow reagent (Dual luciferase assay system, Cat #E1980, Promega). Luciferase and renilla readouts were taken using Tecan® F500 (Tecan) multiplate reader. All the liquid handling steps (aspiration of the medium, dispensing of Passive lysis buffer, Luciferase Assay Reagent II and Stop and Glow reagents) were performed using ELF406 liquid handler.
In order to identify novel modulators of the Notch pathway, Applicants have established a coculture assay in which DL4 ligand expressing HeLa cells were cultured with N1 HeLa cells, thereby activating the Notch pathway. The use of a DL4 and N1 HeLa cell coculture system mimics physiological conditions of cell-cell communication between ligand and receptor expressing cells. The in vitro generation of a controlled receptor-ligand assay system allowed Applicants to modify and monitor the Notch signal intensity by γ-secretase inhibitors. […]
Background: In a reporter assay the amount or activity of a reporter protein is the signal.

Another data set relates to KOPTK1. In words: Cell cycle analysis (Ki67 and Hoechst stain), KOPTK1. In kind it is cell-based, human. To be noted: 10 μM. How it is done: FIGS. 6A-6D show 6-(4-Tert-Butylphenoxy)Pyridin-3-Amine (I3) induces G0/G1 cell cycle arrest and apoptosis in human T cell acute lymphoblastic leukemia cell lines and human breast cancer cell line HCC1187. […] Percentage of Annexin V positive (apoptotic) cell population was measured using flow cytometry.
In addition to induction of apoptosis, the proliferative arrest observed in 6-(4-Tert-Butylphenoxy)Pyridin-3-Amine (I3) treated human leukemic cell lines and breast cancer cell line also appears to be due to cell cycle arrest in G0/G1 phase of the cell cycle. Leukemic cell lines (RPMI8402, KOPTK1 and TALL1) and breast cancer cell lines were treated with 6-(4-Tert-Butylphenoxy)Pyridin-3-Amine (I3) for 48 hours and cell cycle status was determined using Ki67 and Hoechst stain.

Setting [4] is: primary human TALL with accumulation of NICD.

Turning to `CC(C)(C)c1ccc(Oc2ccc(N)cn2)cc1` [I3, 6-(4-Tert-Butylphenoxy)Pyridin-3-Amine], the response to treatment entry in data set [1] (primary human TALL samples without detectable levels of NICD) is on record as “did not respond”. In addition, in data set [1] (setting [4]), the NICD protein result is “leads to a downregulation of this protein” and the proliferation entry was “correlates with a proliferative arrest”. In data set [2], the body weight entry is listed as “did not cause a loss in the body weight”. Also, the “DL4:N1 (Notch1) driven pathway activation” value in data set [3] is “caused an inhibition of Notch signalling via both DL4:N1 and DL4:N2 ligand-receptor pairs; also recorded: block Notch1 and Notch2 induced pathway activation”. The cell cycle status result in the data set on KOPTK1 (48 hours) was “induces an arrest in the G0/G1 phase of the cell cycle”. In the data set on KOPTK1 (stated jointly for RPMI8402, KOPTK1 and TALL1), the “increase in cells arrested in G0/G1 phase of the cell cycle” value is 20-30%.
Consider `C[C@H](NC(=O)Cc1cc(F)cc(F)c1)C(=O)N[C@H](C(=O)OC(C)(C)C)c1ccccc1` [DAPT, N—[N-(3,5-difluorophenacetyl-Lalanyl)]-(S)-phenylglycine t-butyl ester, reference compound], for which the “downregulation of Notch signalling activation” value in data set [3] (10 μM DAPT vs DMSO, 384 well plate) is 10 fold. Also, the “DL4:N1 (Notch1) driven pathway activation” value in data set [3] is “block Notch1 and Notch2 induced pathway activation”.

Source of the values: patent publication US10054581B1, “Inhibitors of notch signaling pathway and use thereof in treatment of cancers” (Ecole Polytechnique Federale de Lausanne (EPFL), priority 2011, dated 2018).
